What was measured:
[1] = system: SMARCA4 mutated cancer cells; conditions: SMARCA2/4 bromodomain inhibitor; Vangamudi et al. Cancer Res 2015; cited from earlier work
SMARCA2 = target: T1, SMARCA2 (Homo sapiens, UniProt P51531); experiment: SMARCA2 protein degradation in NCIH520 cells by In Cell Western (ICW); format: cell-based; conditions: highest concentration 1 μM; for DC50: H520 cells, overnight incubation (maximum 18 hours), read-out: DC50 (SM2_H520): SMARCA2 degradation potency; for Dmax: NCI-H520, overnight incubation (maximum 18 hours), read-out: Dmax % (SM2_H520): maximum SMARCA2 degradation within the concentrations tested
T1 construct: endogenous in cells; host or cells: NCI-H520 (given as NCIH520 / NCIH1520 / H520)
Protocol: (§1) Compounds were dissolved in DMSO to make 10 mM stock and 3-fold series dilutions were further conducted keeping the highest concentration 10 μM. NCIH11693 and NCIH1520 cells were maintained in PRMI 1640 medium (Corning Cellgro, Catalog #: 10-040-CV) supplemented with 10% v/v FBS (GE Healthcare, Catalog #: SH30910.03) by splitting 1:3 twice a week.
(§2) SMACRA2 and SMARCA4 Protein Degradation DC50 Values in NCIH1693 and NCIH520 Cells by in Cell Western (ICW) Analysis.
(§3) Cells were trypsinized and 30 thousand cells/well were seeded into 384-well plates and were allowed to grow for 1-2 hours at 37° C. Eight-point, 3-fold serial dilutions of compounds from 0.5 mM stocks were added to the cells (using digital Dispenser D300-Tecan, keeping highest concentration 1 μM and normalizing with DMSO at the highest dispensed volume). Plates were incubated at 37° C. for overnight (maximum 18 hours). Cells incubated with DMSO was used as a vehicle control.
(§4) To perform In Cell Western, medium was removed from all the wells leaving cells attached to the surface. After removing the medium, cells were fixed within the plates with 40 μL of 4% formaldehyde by incubating at room temperature for 30 minutes, and then permeabilized with wash buffer (1×PBS with 0.1% Triton X-100) by washing the plate 5 times with 50 μL/well. Before labeling with primary antibodies, cells were blocked with 30 μL/well of blocking buffer (Licor Odyssey blocking buffer PBS #927-40000) for 30 minutes at room temperature. To measure SMARCA2 or SMARCA4 proteins, cells were labeled with 20 μL/well of anti SMARCA2 or SMACRA4 antibodies (Cell Signaling BRM #11966S 1:800, Cell Signaling BRG #49360S 1:800) diluted in Li-Cor Odyssey blocking buffer-PBS #927-40000, followed by overnight incubation at 4° C.
(§5) The next day, plates were washed 5×5 minutes with 50 μL/well of washing buffer to remove all the excess primary antibody and then 20 μL from a mixture of secondary antibody and fluorescent DNA specific dye (Goat anti rabbit 1:500 IRDye-800CW #92632211, and DRAQ5™ 1:2000-#ab108410) was added to each well. Plates were incubated for 1 hour at room temperature with gentle rocking. Cells were washed 5 times with 50 μL/well wash buffer, followed by one last wash with DI water, followed by 10 mins drying at 37° C. oven before scanning. Plates were scanned using Li-Cor Odyssey CLx imaging system to acquire integrated intensities at 700 nm and 800 nm. SMARCA signals were normalized to total cell count and then these normalized values were used to calculate the percent degradation relative to DMSO control and maximum inhibition. DC50s were calculated by using the GraphPad Prism4 program based on sigmoidal dose response equation ([Inhibitor] vs. normalized response-Variable slope).
(§6) In Table 36, the DC50/Dmax% (SM2_H520) refers to SMARCA2 degradation potency/maximum SMARCA2 degradation within the concentrations in H520 cells and DC50/Dmax% (SM4_H520) refers to SMARCA4 degradation potency/maximum SMARCA4 degradation within the concentrations tested in H520 cells.

SMARCA4 = target: T2, SMARCA4 (Homo sapiens, UniProt P51532); experiment: SMARCA4 protein degradation in NCIH520 cells by In Cell Western (ICW); format: cell-based; conditions: highest concentration 1 μM; for DC50: H520 cells, overnight incubation (maximum 18 hours), read-out: DC50 (SM4_H520): SMARCA4 degradation potency; for Dmax: NCI-H520, overnight incubation (maximum 18 hours), read-out: Dmax % (SM4_H520): maximum SMARCA4 degradation within the concentrations tested
T2 construct: endogenous in cells; host or cells: NCI-H520 (given as NCIH520 / NCIH1520 / H520)
Protocol: as §1, §2, §3, §4, §5, §6

T2 sequence (P51532 whole entry): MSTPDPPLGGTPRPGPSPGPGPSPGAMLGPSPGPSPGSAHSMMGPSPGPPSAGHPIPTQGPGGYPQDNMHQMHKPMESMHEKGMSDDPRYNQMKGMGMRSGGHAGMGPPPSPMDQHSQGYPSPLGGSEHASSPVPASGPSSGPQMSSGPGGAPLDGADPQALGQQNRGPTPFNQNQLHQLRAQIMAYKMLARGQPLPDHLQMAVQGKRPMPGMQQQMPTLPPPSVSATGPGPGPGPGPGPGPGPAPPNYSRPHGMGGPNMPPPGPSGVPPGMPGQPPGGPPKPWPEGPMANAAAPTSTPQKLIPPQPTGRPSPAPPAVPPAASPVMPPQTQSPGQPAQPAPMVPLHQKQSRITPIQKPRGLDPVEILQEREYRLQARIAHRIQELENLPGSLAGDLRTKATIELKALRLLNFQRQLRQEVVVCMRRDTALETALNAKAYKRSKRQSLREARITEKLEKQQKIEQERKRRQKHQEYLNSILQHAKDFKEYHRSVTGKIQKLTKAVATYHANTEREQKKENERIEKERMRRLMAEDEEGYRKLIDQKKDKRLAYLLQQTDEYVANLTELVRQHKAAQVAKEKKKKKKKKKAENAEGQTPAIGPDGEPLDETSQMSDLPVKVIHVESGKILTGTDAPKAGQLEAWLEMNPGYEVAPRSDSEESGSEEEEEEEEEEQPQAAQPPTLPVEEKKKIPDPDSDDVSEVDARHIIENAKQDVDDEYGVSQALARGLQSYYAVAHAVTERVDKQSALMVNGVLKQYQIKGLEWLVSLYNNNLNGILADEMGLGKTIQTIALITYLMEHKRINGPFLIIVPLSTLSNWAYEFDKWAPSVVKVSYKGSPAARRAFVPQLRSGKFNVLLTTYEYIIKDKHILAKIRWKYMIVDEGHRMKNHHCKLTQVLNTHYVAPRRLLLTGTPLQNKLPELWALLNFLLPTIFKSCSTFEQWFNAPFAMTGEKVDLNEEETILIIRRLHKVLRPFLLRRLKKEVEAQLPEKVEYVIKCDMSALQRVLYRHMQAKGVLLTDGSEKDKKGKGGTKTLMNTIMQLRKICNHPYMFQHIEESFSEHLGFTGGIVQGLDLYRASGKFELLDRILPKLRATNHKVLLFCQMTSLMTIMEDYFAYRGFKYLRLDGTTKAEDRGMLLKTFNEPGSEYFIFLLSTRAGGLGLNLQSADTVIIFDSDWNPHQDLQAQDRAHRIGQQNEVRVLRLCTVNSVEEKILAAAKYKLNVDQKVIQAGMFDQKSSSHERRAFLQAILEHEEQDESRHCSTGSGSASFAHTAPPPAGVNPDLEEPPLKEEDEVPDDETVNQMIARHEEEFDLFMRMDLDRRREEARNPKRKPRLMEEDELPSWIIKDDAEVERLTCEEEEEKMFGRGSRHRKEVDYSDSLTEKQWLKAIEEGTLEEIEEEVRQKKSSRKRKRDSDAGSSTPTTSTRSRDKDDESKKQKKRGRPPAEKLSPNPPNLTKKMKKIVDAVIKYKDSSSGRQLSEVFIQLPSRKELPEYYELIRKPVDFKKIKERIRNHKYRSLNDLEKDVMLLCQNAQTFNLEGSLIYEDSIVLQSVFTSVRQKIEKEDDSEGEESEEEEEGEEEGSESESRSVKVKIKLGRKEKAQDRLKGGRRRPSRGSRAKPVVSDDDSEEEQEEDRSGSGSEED
T1 sequence (P51531 whole entry): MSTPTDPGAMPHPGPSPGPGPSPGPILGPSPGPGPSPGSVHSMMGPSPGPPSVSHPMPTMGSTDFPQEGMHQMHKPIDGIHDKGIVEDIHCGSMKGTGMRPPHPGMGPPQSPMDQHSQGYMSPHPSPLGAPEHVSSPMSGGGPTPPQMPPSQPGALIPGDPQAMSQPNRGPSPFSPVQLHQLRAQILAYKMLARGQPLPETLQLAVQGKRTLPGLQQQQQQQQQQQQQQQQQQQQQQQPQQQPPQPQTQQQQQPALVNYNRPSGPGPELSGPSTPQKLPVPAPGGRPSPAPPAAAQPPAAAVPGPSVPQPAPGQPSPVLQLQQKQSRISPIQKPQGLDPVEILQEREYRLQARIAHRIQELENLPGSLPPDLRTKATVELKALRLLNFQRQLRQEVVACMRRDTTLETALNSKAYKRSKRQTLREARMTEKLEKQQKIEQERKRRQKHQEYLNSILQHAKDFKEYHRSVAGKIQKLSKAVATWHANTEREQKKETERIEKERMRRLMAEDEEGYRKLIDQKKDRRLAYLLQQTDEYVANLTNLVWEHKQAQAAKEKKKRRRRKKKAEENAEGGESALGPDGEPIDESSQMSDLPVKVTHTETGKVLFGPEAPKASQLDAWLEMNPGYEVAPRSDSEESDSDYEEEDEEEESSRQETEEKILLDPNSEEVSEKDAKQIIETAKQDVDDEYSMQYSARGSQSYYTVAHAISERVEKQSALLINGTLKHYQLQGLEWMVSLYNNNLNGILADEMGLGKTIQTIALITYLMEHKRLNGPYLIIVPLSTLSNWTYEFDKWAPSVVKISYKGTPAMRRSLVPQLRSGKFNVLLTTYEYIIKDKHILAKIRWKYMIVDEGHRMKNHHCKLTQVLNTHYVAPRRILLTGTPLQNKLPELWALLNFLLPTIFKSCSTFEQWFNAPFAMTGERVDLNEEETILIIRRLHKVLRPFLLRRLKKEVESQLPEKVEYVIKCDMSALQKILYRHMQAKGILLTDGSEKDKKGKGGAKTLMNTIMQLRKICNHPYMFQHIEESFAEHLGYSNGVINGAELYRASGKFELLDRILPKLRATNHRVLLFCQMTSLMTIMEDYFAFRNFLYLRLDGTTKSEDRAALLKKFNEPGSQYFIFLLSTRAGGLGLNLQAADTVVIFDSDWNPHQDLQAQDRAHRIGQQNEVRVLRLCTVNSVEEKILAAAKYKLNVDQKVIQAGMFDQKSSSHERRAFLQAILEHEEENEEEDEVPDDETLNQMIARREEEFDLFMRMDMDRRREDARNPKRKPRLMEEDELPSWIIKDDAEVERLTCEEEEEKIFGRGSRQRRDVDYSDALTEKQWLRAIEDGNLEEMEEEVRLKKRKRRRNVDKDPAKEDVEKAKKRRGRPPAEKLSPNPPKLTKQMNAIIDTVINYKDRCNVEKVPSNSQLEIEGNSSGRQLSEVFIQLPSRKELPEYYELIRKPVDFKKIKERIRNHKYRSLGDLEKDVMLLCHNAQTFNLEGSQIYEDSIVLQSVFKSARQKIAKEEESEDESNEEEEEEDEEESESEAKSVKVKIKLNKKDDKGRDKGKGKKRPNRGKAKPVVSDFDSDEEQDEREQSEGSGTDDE

| SMILES | effects on cell proliferation inhibition [1] | DC50 (SMARCA2) [nM] | Dmax (SMARCA2) [%] | DC50 (SMARCA4) [nM] | Dmax (SMARCA4) [%] |
| --- | --- | --- | --- | --- | --- |
| O=C(/C=C/N1C[C@H]2C[C@@H]1CN2c1ccccn1)c1ccccc1O [PFI-3] | none to minor effects | – | – | – | – |
| O=C1CCC(N2Cc3cc(CCN4CC=C(c5cnc(N6CCN7c8cc(-c9ccccc9O)nnc8NC[C@H]7C6)nc5)CC4)ccc3C2=O)C(=O)N1 (stereo partly drawn) [Example 6, 3-(5-(2-(4-(2-((S)-2-(2-hydroxyphenyl)-5,6,6a,7,9,10-hexahydro-8H-pyrazino[1′,2′:4,5]pyrazino[2,3-c]pyridazin-8-yl)pyrimidin-5-yl)-3,6-dihydropyridin-1(2H)-yl)ethyl)-1-oxoisoindolin-2-yl)piperidine-2,6-dione] | – | < 100 | > 75 | < 100 | > 75 |
| O=C1CCC(N2Cc3cc(CCCN4CCC(CCc5cnc(N6CCN7c8cc(-c9ccccc9O)nnc8NC[C@@H]7C6)nc5)CC4)ccc3C2=O)C(=O)N1 (stereo partly drawn) [Example 3, 3-(5-(3-(4-(2-(2-((R)-2-(2-hydroxyphenyl)-5,6,6a,7,9,10-hexahydro-8H-pyrazino[1′,2′:4,5]pyrazino[2,3-c]pyridazin-8-yl)pyrimidin-5-yl)ethyl)piperidin-1-yl)propyl)-1-oxoisoindolin-2-yl)piperidine-2,6-dione] | – | < 100 | > 75 | < 100 | > 75 |
| O=C1CCC(n2c3ccc(CCCN4CCC(N5CC(N6CCN7c8cc(-c9ccccc9O)nnc8NC[C@H]7C6)C5)CC4)cc3c3cccnc32)C(=O)N1 (stereo partly drawn) [Example 21, 3-(6-(3-(4-(3-((S)-2-(2-hydroxyphenyl)-5,6,6a,7,9,10-hexahydro-8H-pyrazino [1′,2′:4,5]pyrazino[2,3-c]pyridazin-8-yl)azetidin-1-yl)piperidin-1-yl)propyl)-9H-pyrido[2,3-b]indol-9-yl)piperidine-2,6-dione] | – | < 100 | > 75 | < 100 | > 75 |
| O=C1CCC(N2Cc3cc(CCN4CCC(/C=C/c5cnc(N6CCN7c8cc(-c9ccccc9O)nnc8NC[C@H]7C6)nc5)CC4)ccc3C2=O)C(=O)N1 (stereo partly drawn) [Example 7, 3-(5-(2-(4-((E)-2-(2-((S)-2-(2-hydroxyphenyl)-5,6,6a,7,9,10-hexahydro-8H-pyrazino[1′,2′:4,5]pyrazino[2,3-c]pyridazin-8-yl)pyrimidin-5-yl)vinyl)piperidin-1-yl)ethyl)-1-oxoisoindolin-2-yl)piperidine-2,6-dione] | – | < 100 | > 75 | < 100 | > 75 |
| O=C1CCC(n2c3ccc(CCCN4CCN(CCN5CCN6c7cc(-c8ccccc8O)nnc7NC[C@H]6C5)CC4)cc3c3cccnc32)C(=O)N1 (stereo partly drawn) [Example 22, 3-(6-(3-(4-(2-((S)-2-(2-hydroxyphenyl)-5,6,6a,7,9,10-hexahydro-8H-pyrazino [1′,2′:4,5]pyrazino[2,3-c]pyridazin-8-yl)ethyl)piperazin-1-yl)propyl)-9H-pyrido[2,3-b]indol-9-yl)piperidine-2,6-dione] | – | < 100 | > 75 | < 100 | > 75 |
| O=C1CCC(N2C(=O)c3ccc(N4CCC(N5CCC(N6CCN7c8cc(-c9ccccc9O)nnc8NC[C@H]7C6)CC5)C4)cc3C2=O)C(=O)N1 (stereo partly drawn) [Example 13, 2-(2,6-Dioxopiperidin-3-yl)-5-(3-(4-((S)-2-(2-hydroxyphenyl)-5,6,6a,7,9,10-hexahydro-8H-pyrazino[1′,2′:4,5]pyrazino[2,3-c]pyridazin-8-yl)piperidin-1-yl)pyrrolidin-1-yl) isoindoline-1,3-dione] | – | < 100 | > 75 | < 100 | > 75 |

From patent US12448389B2, “BRM targeting compounds and associated methods of use” (Prelude Therapeutics Incorporated, priority 2020, dated 2025)
